Assay results taken from article PMC8298857, “Vanillin Activates Human Bitter Taste Receptors TAS2R14, TAS2R20, and TAS2R39” (Frontiers in Nutrition, 2021).

What was measured:
Assay in all cases: FLIPR calcium imaging in transfected HEK293 PEAKrapid Gα[…]i/o44 cells, dose-response with mock control
Type in all cases: cell-based
[1] = biological target: T1, TAS2R39 (Homo sapiens, UniProt P59534)
T1 construct: TAS2R cDNA cloned 3′ of the first 45 amino acids of the rat somatostatin receptor 3
T1 sequence (P59534 1-338): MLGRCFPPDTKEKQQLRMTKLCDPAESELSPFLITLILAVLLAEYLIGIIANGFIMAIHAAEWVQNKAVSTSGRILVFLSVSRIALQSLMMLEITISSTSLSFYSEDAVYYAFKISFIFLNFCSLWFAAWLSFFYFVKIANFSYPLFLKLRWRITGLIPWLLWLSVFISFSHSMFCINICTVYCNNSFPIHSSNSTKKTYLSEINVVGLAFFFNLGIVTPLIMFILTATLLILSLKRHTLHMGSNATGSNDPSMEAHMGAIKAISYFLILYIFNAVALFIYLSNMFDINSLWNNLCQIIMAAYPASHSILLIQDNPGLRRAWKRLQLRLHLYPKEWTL

[2] = biological target: T2, TAS2R20 (Homo sapiens, UniProt P59543)
T2 construct: TAS2R cDNA cloned 3′ of the first 45 amino acids of the rat somatostatin receptor 3
T2 sequence (P59543 1-309): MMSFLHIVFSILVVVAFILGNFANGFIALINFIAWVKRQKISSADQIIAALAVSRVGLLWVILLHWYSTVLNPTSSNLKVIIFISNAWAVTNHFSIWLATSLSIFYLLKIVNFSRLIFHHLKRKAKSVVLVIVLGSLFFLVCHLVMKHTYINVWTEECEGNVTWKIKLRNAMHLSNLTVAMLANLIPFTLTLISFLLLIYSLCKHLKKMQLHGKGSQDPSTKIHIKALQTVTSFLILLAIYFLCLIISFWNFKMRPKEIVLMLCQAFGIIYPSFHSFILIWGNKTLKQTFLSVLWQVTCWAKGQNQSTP

[3] = biological target: T3, TAS2R14 (Homo sapiens, UniProt Q9NYV8)
T3 construct: TAS2R cDNA cloned 3′ of the first 45 amino acids of the rat somatostatin receptor 3
T3 sequence (Q9NYV8 1-317): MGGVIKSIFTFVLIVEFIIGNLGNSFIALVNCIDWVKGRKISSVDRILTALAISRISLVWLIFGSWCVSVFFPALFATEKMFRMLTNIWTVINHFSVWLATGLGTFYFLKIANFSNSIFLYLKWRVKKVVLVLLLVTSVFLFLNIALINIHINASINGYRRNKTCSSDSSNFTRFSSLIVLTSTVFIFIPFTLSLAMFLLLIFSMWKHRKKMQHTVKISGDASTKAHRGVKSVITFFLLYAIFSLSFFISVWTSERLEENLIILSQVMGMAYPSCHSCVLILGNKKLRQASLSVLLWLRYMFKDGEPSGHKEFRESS

Question: With COc1cc(C=O)ccc1O [vanillin, 4-hydroxy-3-methoxybenzaldehyde] as the molecule, how does the EC50 [1] read?
Answer: The EC50 was 870 ± 190 µM.

Question: What about the EC50 [2] of the same molecule?
Answer: Its EC50 is 530 ± 90 µM.

Question: What about the EC50 [3] of the same molecule?
Answer: Its EC50 is 570 ± 110 µM.
